According to patent US20210261971A1, “COMPOSITIONS AND METHODS FOR AMELIORATING TISSUE INJURY, ENHANCING LIVER REGENERATION AND STEM CELL THERAPIES” (UNIVERSITY OF SOUTHERN CALIFORNIA, priority 2018, published 2021):
Entries after “also recorded” stand apart in the source; their conditions may differ. Where two headings read alike, the source gives them in different places.

Key:
Format in all cases: in vivo, rat
[1] = system: Lewis rats; assay: Liver regeneration after two-thirds partial hepatectomy (PH): liver-to-body weight ratio, Ki-67 proliferation; details: for hepatocyte proliferation (ki-67) compared to respective control: day 2 after PH, intraportal infusion
Method: Partial (70%) hepatectomy was performed under general anesthesia with ketamine-xylazine (80-90 mg/kg ip). For 70% partial hepatectomy, the median and left lateral lobes were removed. Buprenorphine SR (1 mg/kg) was used postoperatively for analgesia.
Liver-selective MMP-9 inhibition: Knockdown of MMP-9 was achieved by injection of one of two MMP-9 antisense oligonucleotides that were a kind gift from Ionis Pharmaceuticals (Ions No 283953 and 283973, Carlsbad, Calif.; 20 mg/kg intraperitoneally twice weekly for 4 weeks.
Systemic MMP inhibition: Doxycycline (Sigma, St. Louis), 15 mg/kg i.g., was given twice daily starting 2 days before the relevant study. Control studies were performed with the same dose of a chemically modified tetracycline, isochlorotetracycline, which is only a weak MMP inhibitor. In other experiments, MMP-2/9 was inhibited by infusing 2-[(4-biphenylsulfonyl)amino]-3-phenyl-propionic acid, 100 μg/kg/h, intraperitoneally with an Alzet mini-osmotic pump (model 2001, Durect Corporation, Cupertino Calif.).
Deparaffinized 5 μm sections of liver were treated with Bond ER-2 antigen retrieval (Leica Biosystems, Buffalo Grove, Ill.) for 20 min. After preblocking for 10 min with Rodent Block R (Cat #RBR962G, Biocare, Pacheco, Calif.), sections were incubated with antibody against Ki-67 for 60 min. Immunohistochemistry was performed by incubating sections with rabbit-on-rodent HRP-Polymer (cat #RMR622G, Biocare) for 30 min. Slides were rinsed in Bond diaminobenzidine (Leica Biosystems) for 10 min. After counterstaining with Bond hematoxylin, slides were dehydrated and covered using a coverslip with resinous mounting medium (Leica Biosystems).
Ki-67 positive cells were determined using photographs taken with a 20×-objective in 15 lobules per rat, n=3. To assess the percentage of proliferating hepatocytes and non-parenchymal cells, slides were coded and the percentage Ki-67 positive cells was determined blindly by X.W. To determine zonation of proliferating cells, each lobule was divided into three even fields and the total number of ki-67 positive cells/field was counted.

[2] = system: BM sprocs (CD133+45+31+ cells); assay: Recruitment of BM sprocs after PH: number in bone marrow and circulation by immunomagnetic selection and flow cytometry; details: for number of circulating CXCR7+ sprocs: 6 hours after PH
Method: Sproc isolation. BM and circulating sprocs were isolated by immunomagnetic selection for CD133 using a CD133 Cell Isolation Kit (Miltenyi Biotec, Auburn, Calif.) and separation with an autoMACS Pro (Miltenyi Biotec, Auburn, Calif.), followed by FACS sorting for CD45 and CD31 (FIG. 26, or Supporting Fig S1).
To determine the number of sprocs in the circulation and BM from Lewis rats 6 hours after partial hepatectomy, CD133+ cells were isolated by immunomagnetic selection for CD133 from peripheral blood or BM. Cell suspensions were preblocked with FcR blocking reagent and incubated for 60 minutes with antibodies to rat CD45 and CD31. CD133+45+31+ cells were quantified by flow cytometry. In some experiments cells were also stained with antibody to rat CXCR7, to identify CD133+45+31+CXCR7+ cells in the circulation.
(§1) Flow cytometry. Flow cytometry was performed using a FACSCalibur (BD Biosciences). Isotype control antibodies were used to determine appropriate gates, voltages, and compensation required for multivariate flow cytometry. Cell Quest Pro software was used for analysis

[3] = system: BM sprocs; assay: Hepatic engraftment of GFP+ BM sprocs after PH (% GFP+ LSECs, EGFP bone marrow transplant)
Description: FIG. 7D illustrates the percentage of liver sinusoidal endothelial cells (LSECs) that are bone marrow-derived, i.e. derived from BM sprocs (y-axis labeled % GFP+ LSECs). Hepatic engraftment determined as the percentage of bone marrow-derived LSECs after PH is enhanced by MMP-9 ASO or intraportal MMP inhibitor, whereas systemic inhibition of MMP by doxycycline or intraperitoneal MMP inhibitor reduces hepatic engraftment of BM sprocs. Rats were transplanted with bone marrow from a transgenic EGFP rat to allow tracking of bone marrow cells. Rats were treated with one month of ASO, 2 days of doxycycline, or infusion with the MMP inhibitor followed by partial hepatectomy. On day 2 LSECs were isolated and the percentage of GFP+ LSECs was determined by flow cytometry.
Bone marrow transplantation. BM cells were obtained from one tibia and femur from the donor. Recipients underwent 1,000 cGy total body irradiation and were injected via tail vein with 50 million BM cells. Rats received oxytetracycline (200 mg/ml) diluted 1:1,000 in the drinking water starting two days before irradiation and continuing until one week after irradiation. BM was allowed to engraft for 2 months before use. BM from Lew-Tg(CAG-EGFP)ys Lewis rats was transplanted into wild-type Lewis rats and cells were tracked by GFP expression.
LSEC isolation. LSECs were isolated by collagenase perfusion, iodixanol density gradient centrifugation, and centrifugal elutriation, as previously described (22, 23). Yields averaged 86×10^6 cells per normal rat liver (range 69-95×10^6) with average viability of 94% (range 91-96%). Purity of the cells was 99%, as determined by uptake of formaldehyde-treated serum albumin (kind gift from Bard Smedsrod, University of Tromso, Tromso, Norway), a function specific to LSECs. Cells isolated by this protocol have an appropriate range of fenestrae organized in sieve plates.
as §1

[4] = system: MMP-9; assay: Immunoblot of hepatic pro-MMP-9 and bone marrow extracellular fluid MMP-9/pro-MMP-9 after PH; details: 6 hours after PH
Method: Immunoblotting. Samples from freshly isolated liver were harvested using triple lysis buffer (TLB: 50 mM Tris base, 150 mM NaCl, 3 mM sodium azide, 12 mM sodium deoxycholate, 0.1% SDS, 1% Nonidet-P40) supplemented with 2 mM phenylmethylsulphonyl fluoride (PMSF), 1 mM sodium orthovanadate and 1% protease inhibitors cocktail (Santa Cruz sc-24948). Proteins were purified by centrifugation at 15,000 g at 4° C. for 10 min and quantified using DC™ Protein Assay Kit (BioRad). The samples obtained from bone marrow extracellular fluid were preserved in PBS. For MMP-9 analysis, 100 μg of total protein was used from each sample per lane and resolved on NUPAGE™ NOVEX™ 10% Bis-Tris Protein Gels using MOPS running buffer. Proteins were transferred onto 0.45 μm nitrocellulose membranes via electroblotting using XCell II™ Blot Module (Invitrogen), for 1 h, 30V. For SDF-1 and VEGF analysis, 75 μg of total protein was used from each sample per lane and resolved on NUPAGE™ NOVEX™ 4-12% Bis-Tris Protein Gels using MES running buffer. Proteins were transferred onto 0.2 μm nitrocellulose membranes via electroblotting using Trans-blot SD Semi-Dry Transfer Cell™ (Bio-rad), for 20 min, 25V. Membranes were blocked using NAP-BLOCKER™. […] Membrane digital images were acquired with the Odyssey Infrared Imaging System (LI-COR) and analyzed using the LI-COR IMAGE STUDIO™. […]

[5] = system: Lewis rats; assay: Liver histology for toxicity of MMP inhibitors given to controls
[6] = system: infused allogeneic sprocs; assay: Model of stem cell therapy: engraftment of infused GFP+ allogeneic sprocs after PH; details: 3 months; control group 1.5%
Method: FIG. 8 graphically illustrates the percent LSECs as a function of engraftments of infused allogenic sprocs, and examines the concept that impairment of BM release of sprocs will favor engraftment of exogenously infused progenitor cells. […] When the percentage of cells derived from the GFP+ allogeneic progenitors was examined at 3 months, 1.5% were GFP+ in the control group versus 14% in the doxycycline group (data not shown). Method: rats were pre-treated with 2 days of doxycycline, 15 mg/kg intra-gastrically twice daily, followed by partial hepatectomy. 1 million sprocs were isolated from the livers of GFP+ rats and infused by tail vein injection. On day 2 and after 3 months LSECs were isolated and the number of GFP+ cells was determined by flow cytometry. Increased ischemia-reperfusion injury in Non-Alcoholic Fatty Liver Disease (NAFLD) due to impaired sdf-1 signaling to bone marrow sprocs can be attenuated by liver-selective MMP inhibition: Systemic MMP inhibition: Doxycycline (Sigma, St. Louis), 15 mg/kg i.g., was given twice daily starting 2 days before the relevant study. […] Purity of the cells was 99%, as determined by uptake of formaldehyde-treated serum albumin (kind gift from Bard Smedsrod, University of Tromso, Tromso, Norway), a function specific to LSECs. […]

## O=C(O)[C@@H](Cc1ccccc1)NS(=O)(=O)c1ccc(-c2ccccc2)cc1 [MMP-2/9 inhibitor, (2R)-2-[(4-Biphenylylsulfonyl)amino]-3-phenylpropionic acid]
[1]
  hepatocyte proliferation (ki-67) compared to respective control: enhances
[1]; listed as MMPi
  hepatocyte proliferation (ki-67) compared to respective control: enhanced
[2]; intraperitoneal
  number of circulating CXCR7+ sprocs: reduced
[2]; intraportal infusion
  number of circulating CXCR7+ sprocs: increased
[2]; after PH, intraperitoneal
  reduction of CXCR7+ sprocs mobilized to the circulation: 86%
[2]; after PH, intraportal infusion
  increase of CXCR7+ sprocs in the circulation: 110%
[3]; intraperitoneal
  hepatic engraftment of BM sprocs (% GFP+ LSECs): reduced
  reduction of hepatic engraftment of BM sprocs compared to control/PH: 36%
[3]; intraperitoneal, listed as MMP inhibitor
  hepatic engraftment of BM sprocs (% GFP+ LSECs): reduces
[3]; intraportal
  hepatic engraftment of BM sprocs (% GFP+ LSECs): enhanced
  increase of hepatic engraftment of GFP+ BM sprocs compared to control/PH: 45%
[4]; intraperitoneal
  increase of hepatic MMP-9 protein expression after PH: abrogated the increase in hepatic MMP-9 expression
[4]; intraportal
  increase of hepatic MMP-9 protein expression after PH: abrogated the increase in hepatic MMP-9 expression
[5]; intraportal
  hepatotoxicity (histology): no evidence of toxicity; also recorded: neither doxycycline nor intraportal MMP-2/9 inhibitor given to controls was hepatotoxic

## C[C@H]1c2cccc(O)c2C(=O)C2=C(O)[C@]3(O)C(=O)C(C(N)=O)=C(O)[C@@H](N(C)C)[C@@H]3[C@@H](O)[C@@H]21 [doxycycline, Doxycycline]
[1]; day 5 after two-thirds PH, doxycycline for 2 days before PH (systemic)
  reduction of liver-to-body weight ratio compared to its solvent control: 29%
[2]; after PH, systemic
  reduction of CXCR7+ sprocs mobilized to the circulation: 90%
  reduction of mobilization of BM sprocs to the circulation: 72%
[3]; systemic
  reduction of hepatic engraftment of BM sprocs compared to control/PH: 58%
[6]
  percentage of GFP+ LSECs derived from infused allogeneic progenitors: 14%
[5]
  hepatotoxicity (histology): neither doxycycline nor intraportal MMP-2/9 inhibitor given to controls was hepatotoxic
[5]; listed as coxycycline
  hepatotoxicity (histology): no evidence of toxicity

## isochlorotetracycline
[3]
  hepatic engraftment of BM sprocs (% GFP+ LSECs): no effect
